Data published in patent US11591604B2, “Gene expression in Bacteroides” (Massachusetts Institute of Technology, priority 2015, dated 2023).

test system: NanoLuc; assay: NanoLuc luciferase reporter expression from constitutive promoters and RBSs integrated with pNBU2; type: cell-based, B. thetaiotaomicron; conditions: RBS combined with promoter PBT1311, NanoLuc reporter, three biological replicates

| Substance | Average Luminescence (RLU/CFU) |
| --- | --- |
| C25: RBS, SEQ ID NO: 72 (DNA TCCCGCATTTTAAAATAAAATAAATTATTATTTTACTTAAACGAAT; chemistry not fully specified) | 0.01148 RLU/CFU |
| C26: RBS, SEQ ID NO: 75 (DNA TCCCGCATTTTAAAATAAAATAAATTATTTATTTACTTAAACGAAT; chemistry not fully specified) | 0.009775 RLU/CFU |
| C27: RBS, SEQ ID NO: 76 (DNA TCCCGCATTTTAAAATAAAATAAATTATTTTTTTAGTTAAACGAAT; chemistry not fully specified) | 0.009752 RLU/CFU |
| C28: RBS, SEQ ID NO: 81 (DNA TCCCGCATTTTAAAATAAAATAAATTATTCATTTATTTAAACGAAT; chemistry not fully specified) | 0.009278 RLU/CFU |
| C29: RBS, SEQ ID NO: 86 (DNA TCCCGCATTTTAAAATAAAATAAATTATTTTTTTATTTAAACGAAT; chemistry not fully specified) | 0.008233 RLU/CFU |
| C30: RBS, SEQ ID NO: 88 (DNA TCCCGCATTTTAAAATAAAATAAATTATTTATTTATTTAAACGAAT; chemistry not fully specified) | 0.008085 RLU/CFU |
| C31: RBS, SEQ ID NO: 90 (DNA TCCCGCATTTTAAAATAAAATAAATTATTTATTTACTTAAACGAAT; chemistry not fully specified) | 0.007861 RLU/CFU |
| C32: RBS, SEQ ID NO: 91 (DNA TCCCGCATTTTAAAATAAAATAAATTATTGCTTTATTTAAACGAAT; chemistry not fully specified) | 0.007717 RLU/CFU |
| C33: RBS, SEQ ID NO: 93 (DNA TCCCGCATTTTAAAATAAAATAAATTATTAGTTTACTTAAACGAAT; chemistry not fully specified) | 0.006912 RLU/CFU |
| C34: RBS, SEQ ID NO: 96 (DNA TCCCGCATTTTAAAATAAAATAAATTATTCTTTTACTTAAACGAAT; chemistry not fully specified) | 0.006727 RLU/CFU |
| C35: RBS, SEQ ID NO: 99 (DNA TCCCGCATTTTAAAATAAAATAAATTATTCCTTTAATTAAACGAAT; chemistry not fully specified) | 0.005815 RLU/CFU |
| C36: RBS, SEQ ID NO: 100 (DNA TCCCGCATTTTAAAATAAAATAAATTATTACTTTATTTAAACGAAT; chemistry not fully specified) | 0.005692 RLU/CFU |
| C37: RBS, SEQ ID NO: 102 (DNA TCCCGCATTTTAAAATAAAATAAATTATTGGTTTAGTTAAACGAAT; chemistry not fully specified) | 0.005598 RLU/CFU |
| C38: RBS, SEQ ID NO: 108 (DNA TCCCGCATTTTAAAATAAAATAAATTATTCTTTTATTTAAACGAAT; chemistry not fully specified) | 0.004774 RLU/CFU |
| C39: RBS, SEQ ID NO: 109 (DNA TCCCGCATTTTAAAATAAAATAAATTATTCCTTTATTTAAACGAAT; chemistry not fully specified) | 0.004534 RLU/CFU |
| C40: RBS, SEQ ID NO: 115 (DNA TCCCGCATTTTAAAATAAAATAAATTATTCCTTTACTTAAACGAAT; chemistry not fully specified) | 0.003759 RLU/CFU |
| C41: RBS, SEQ ID NO: 117 (DNA TCCCGCATTTTAAAATAAAATAAATTATTGGTTTATTTAAACGAAT; chemistry not fully specified) | 0.003107 RLU/CFU |

| Substance | Average Luminescence (RLU/CFU) |
| --- | --- |
| C42: RBS, SEQ ID NO: 119 (DNA TCCCGCATTTTAAAATAAAATAAATTATTCTTTTAGTTAAACGAAT; chemistry not fully specified) | 0.002801 RLU/CFU |
| C43: RBS, SEQ ID NO: 120 (DNA TCCCGCATTTTAAAATAAAATAAATTATTTCTTTAGTTAAACGAAT; chemistry not fully specified) | 0.00264 RLU/CFU |
| C44: RBS, SEQ ID NO: 122 (DNA TCCCGCATTTTAAAATAAAATAAATTATTTGTTTACTTAAACGAAT; chemistry not fully specified) | 0.00249 RLU/CFU |
| C45: RBS, SEQ ID NO: 124 (DNA TCCCGCATTTTAAAATAAAATAAATTATTCATTTAGTTAAACGAAT; chemistry not fully specified) | 0.0024 RLU/CFU |
| C46: RBS, SEQ ID NO: 125 (DNA TCCCGCATTTTAAAATAAAATAAATTATTTGTTTAGTTAAACGAAT; chemistry not fully specified) | 0.001945 RLU/CFU |
| C47: RBS, SEQ ID NO: 126 (DNA TCCCGCATTTTAAAATAAAATAAATTATTTGTTTAATTAAACGAAT; chemistry not fully specified) | 0.00189 RLU/CFU |
| C48: RBS, SEQ ID NO: 128 (DNA TCCCGCATTTTAAAATAAAATAAATTATTCCTTTAGTTAAACGAAT; chemistry not fully specified) | 0.001758 RLU/CFU |
| C49: RBS, SEQ ID NO: 129 (DNA TCCCGCATTTTAAAATAAAATAAATTATTGTTTTATTTAAACGAAT; chemistry not fully specified) | 0.001598 RLU/CFU |
| C50: RBS, SEQ ID NO: 132 (DNA TCCCGCATTTTAAAATAAAATAAATTATTTGTTTATTTAAACGAAT; chemistry not fully specified) | 0.001261 RLU/CFU |
| C51: RBS, SEQ ID NO: 136 (DNA TCCCGCATTTTAAAATAAAATAAATTATTATTTTATTTAAACGAAT; chemistry not fully specified) | 0.0006273 RLU/CFU |
| C52: RBS, SEQ ID NO: 138 (DNA TCCCGCATTTTAAAATAAAATAAATTATTGGTTTACTTAAACGAAT; chemistry not fully specified) | 0.000163 RLU/CFU |
| C53: RBS, SEQ ID NO: 140 (DNA TCCCGCATTTTAAAATAAAATAAATTATTCGTTTAATTAAACGAAT; chemistry not fully specified) | 7.299E-05 RLU/CFU |
| C54: RBS, SEQ ID NO: 141 (DNA TCCCGCATTTTAAAATAAAATAAATTATTCGTTTATTTAAACGAAT; chemistry not fully specified) | 3.651E-05 RLU/CFU |
| C55: RBS, SEQ ID NO: 142 (DNA TCCCGCATTTTAAAATAAAATAAATTATTCGTTTACTTAAACGAAT; chemistry not fully specified) | 2.628E-05 RLU/CFU |
| C56: RBS, SEQ ID NO: 143 (DNA TCCCGCATTTTAAAATAAAATAAATTATTCGTTTAGTTAAACGAAT; chemistry not fully specified) | 2.2125E-05 RLU/CFU |
| rpiL*: parent ribosomal protein RBS, SEQ ID NO: 39, 172, 174 (DNA TCCCGCATTTTAAAATAAAATAAATTATTTATTTAATTAAACGAAT; chemistry not fully specified) | 0.02133 RLU/CFU |

same assay, conditions: set of 8 RBSs, under control of PBT1311, NanoLuc reporter

| Substance | Expression Level (RLU/CFU) |
| --- | --- |
| C33: RBS, SEQ ID NO: 93 (DNA TCCCGCATTTTAAAATAAAATAAATTATTAGTTTACTTAAACGAAT; chemistry not fully specified) | 6.91E-03 RLU/CFU |
| C51: RBS, SEQ ID NO: 136 (DNA TCCCGCATTTTAAAATAAAATAAATTATTATTTTATTTAAACGAAT; chemistry not fully specified) | 6.27E-04 RLU/CFU |
| C52: RBS, SEQ ID NO: 138 (DNA TCCCGCATTTTAAAATAAAATAAATTATTGGTTTACTTAAACGAAT; chemistry not fully specified) | 1.63E-04 RLU/CFU |
| C53: RBS, SEQ ID NO: 140 (DNA TCCCGCATTTTAAAATAAAATAAATTATTCGTTTAATTAAACGAAT; chemistry not fully specified) | 7.30E-05 RLU/CFU |
| C56: RBS, SEQ ID NO: 143 (DNA TCCCGCATTTTAAAATAAAATAAATTATTCGTTTAGTTAAACGAAT; chemistry not fully specified) | 2.21E-05 RLU/CFU |
| rpiL*-C39: RBS, SEQ ID NO: 176; sequence and value match B39 of Table 1 (DNA TCCCGCATTTTAAAATAAAATAAATCATCTAGTTAATTAAACGAATATG; chemistry not fully specified) | 1.26E-03 RLU/CFU |
| rpiL*: parent ribosomal protein RBS, SEQ ID NO: 39, 172, 174 (DNA TCCCGCATTTTAAAATAAAATAAATTATTTATTTAATTAAACGAAT; chemistry not fully specified) | 2.13E-02 RLU/CFU |
